Laboratory results from patent publication US8669291B2, “Phenyl substituted cycloalkylamines as monoamine reuptake inhibitors” (Sunovion Pharmaceuticals Inc., priority 2007, dated 2014).
Where two headings read alike, the source gives them in different places.

Tests used:
[1] = molecular target: T1, human serotonin (5-HT) reuptake transporter (Homo sapiens, UniProt P31645); experiment: functional uptake assay, human 5-HT reuptake transporter; type: cell-based
T1 construct: expressed in transfected cells
T1 sequence (P31645 whole entry): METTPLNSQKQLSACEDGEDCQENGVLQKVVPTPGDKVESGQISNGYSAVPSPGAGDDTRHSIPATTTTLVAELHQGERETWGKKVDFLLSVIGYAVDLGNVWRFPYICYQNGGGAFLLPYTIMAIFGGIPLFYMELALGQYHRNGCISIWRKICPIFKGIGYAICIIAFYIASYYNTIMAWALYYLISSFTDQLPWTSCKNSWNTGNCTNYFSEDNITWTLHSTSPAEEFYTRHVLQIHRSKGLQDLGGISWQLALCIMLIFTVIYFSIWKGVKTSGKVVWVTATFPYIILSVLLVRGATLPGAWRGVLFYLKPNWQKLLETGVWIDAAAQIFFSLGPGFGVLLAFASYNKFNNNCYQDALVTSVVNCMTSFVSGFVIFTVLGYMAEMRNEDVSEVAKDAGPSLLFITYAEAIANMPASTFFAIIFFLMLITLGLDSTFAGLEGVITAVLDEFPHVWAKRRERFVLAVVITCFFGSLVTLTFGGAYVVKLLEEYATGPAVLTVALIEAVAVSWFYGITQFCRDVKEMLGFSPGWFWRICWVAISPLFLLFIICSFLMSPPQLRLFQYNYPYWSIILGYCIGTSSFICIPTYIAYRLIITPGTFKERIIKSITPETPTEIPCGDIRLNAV
Method: (§1) Compounds were tested for their inhibition of functional uptake of serotonin (5-HT), norepinephrine (NE), and dopamine (DA), in synaptosomes prepared from rat whole brain, hypothalamus, or corpus striatum, respectively, and/or using recombinant human transporters.

[2] = molecular target: T2, human norepinephrine (NE) reuptake transporter (Homo sapiens, UniProt P23975); experiment: functional uptake assay, human NE reuptake transporter; type: cell-based
T2 construct: expressed in transfected cells
T2 sequence (P23975 whole entry): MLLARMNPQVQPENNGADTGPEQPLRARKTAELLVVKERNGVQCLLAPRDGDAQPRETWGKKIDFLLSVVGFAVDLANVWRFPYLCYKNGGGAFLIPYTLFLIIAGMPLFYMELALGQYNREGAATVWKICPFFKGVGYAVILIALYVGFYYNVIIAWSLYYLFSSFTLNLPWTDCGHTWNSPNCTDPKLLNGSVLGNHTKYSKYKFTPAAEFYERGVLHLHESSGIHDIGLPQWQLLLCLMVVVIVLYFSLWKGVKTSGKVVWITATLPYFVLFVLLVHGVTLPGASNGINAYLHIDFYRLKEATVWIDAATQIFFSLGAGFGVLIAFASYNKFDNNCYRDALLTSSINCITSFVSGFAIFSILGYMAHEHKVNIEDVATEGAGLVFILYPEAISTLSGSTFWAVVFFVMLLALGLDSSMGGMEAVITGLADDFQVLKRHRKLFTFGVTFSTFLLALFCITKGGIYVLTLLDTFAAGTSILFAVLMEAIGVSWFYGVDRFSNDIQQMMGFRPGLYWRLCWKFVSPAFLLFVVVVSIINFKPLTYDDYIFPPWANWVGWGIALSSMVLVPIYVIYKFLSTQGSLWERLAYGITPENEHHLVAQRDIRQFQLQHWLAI
Method: as §1

[3] = molecular target: T3, human dopamine (DA) reuptake transporter (Homo sapiens, UniProt Q01959); experiment: functional uptake assay, human DA reuptake transporter; type: cell-based
T3 construct: expressed in transfected cells
T3 sequence (Q01959 whole entry): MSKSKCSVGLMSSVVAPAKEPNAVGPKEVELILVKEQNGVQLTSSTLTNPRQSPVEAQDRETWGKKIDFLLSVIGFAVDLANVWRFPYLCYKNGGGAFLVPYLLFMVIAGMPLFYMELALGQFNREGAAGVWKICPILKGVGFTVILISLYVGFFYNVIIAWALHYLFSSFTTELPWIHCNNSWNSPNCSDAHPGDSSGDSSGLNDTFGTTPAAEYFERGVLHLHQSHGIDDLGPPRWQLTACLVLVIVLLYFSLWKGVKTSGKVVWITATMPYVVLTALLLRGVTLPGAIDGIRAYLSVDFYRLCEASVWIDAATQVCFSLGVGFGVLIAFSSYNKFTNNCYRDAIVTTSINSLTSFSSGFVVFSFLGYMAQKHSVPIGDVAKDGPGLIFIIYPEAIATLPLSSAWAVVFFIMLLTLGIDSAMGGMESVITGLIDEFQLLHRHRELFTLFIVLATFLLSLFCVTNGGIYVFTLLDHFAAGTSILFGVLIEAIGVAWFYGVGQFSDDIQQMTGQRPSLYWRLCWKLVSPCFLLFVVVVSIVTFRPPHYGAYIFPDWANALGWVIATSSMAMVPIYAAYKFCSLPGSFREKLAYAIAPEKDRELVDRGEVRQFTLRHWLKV
Method: as §1

[4] = human metabolic stability (HLM t1/2); type: in vitro ADME; conditions: human liver microsomes
Source text: (§2) 4b. In Vitro PK Data (Human Metabolic Stability, Inhibition of CYP450 Enzymes, Inhibition of HERG Current)

HERG current = HERG current (Homo sapiens, UniProt Q12809); experiment: inhibition of HERG current; type: cell-based
Sequence of HERG current (Q12809 whole entry): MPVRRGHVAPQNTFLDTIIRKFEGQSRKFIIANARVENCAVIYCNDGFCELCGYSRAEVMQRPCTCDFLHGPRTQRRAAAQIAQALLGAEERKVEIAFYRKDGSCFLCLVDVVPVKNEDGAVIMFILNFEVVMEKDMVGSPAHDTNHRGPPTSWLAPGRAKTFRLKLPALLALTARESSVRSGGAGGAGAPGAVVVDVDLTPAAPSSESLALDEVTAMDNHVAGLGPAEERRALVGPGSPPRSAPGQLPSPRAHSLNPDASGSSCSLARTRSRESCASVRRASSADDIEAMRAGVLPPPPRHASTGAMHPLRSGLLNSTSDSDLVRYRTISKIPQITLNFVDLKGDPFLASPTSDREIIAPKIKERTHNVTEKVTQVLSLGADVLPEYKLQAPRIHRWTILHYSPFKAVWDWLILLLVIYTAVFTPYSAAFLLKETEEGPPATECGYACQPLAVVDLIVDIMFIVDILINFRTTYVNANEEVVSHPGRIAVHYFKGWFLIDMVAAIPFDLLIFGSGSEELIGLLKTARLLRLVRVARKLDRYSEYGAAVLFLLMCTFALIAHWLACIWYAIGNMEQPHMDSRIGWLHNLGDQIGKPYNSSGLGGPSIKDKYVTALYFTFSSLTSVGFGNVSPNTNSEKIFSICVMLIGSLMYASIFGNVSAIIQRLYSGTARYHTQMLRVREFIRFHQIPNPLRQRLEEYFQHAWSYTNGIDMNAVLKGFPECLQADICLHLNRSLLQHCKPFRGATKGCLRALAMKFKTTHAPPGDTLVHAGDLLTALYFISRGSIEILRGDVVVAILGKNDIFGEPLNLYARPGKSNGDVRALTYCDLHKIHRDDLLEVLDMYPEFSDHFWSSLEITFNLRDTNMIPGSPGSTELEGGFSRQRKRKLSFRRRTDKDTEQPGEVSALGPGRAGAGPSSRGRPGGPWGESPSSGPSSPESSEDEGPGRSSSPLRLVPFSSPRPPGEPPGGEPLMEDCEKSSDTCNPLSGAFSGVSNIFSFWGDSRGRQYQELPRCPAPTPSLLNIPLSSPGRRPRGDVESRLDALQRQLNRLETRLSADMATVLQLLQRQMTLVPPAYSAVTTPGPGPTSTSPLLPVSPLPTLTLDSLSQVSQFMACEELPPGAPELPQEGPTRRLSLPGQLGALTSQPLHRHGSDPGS
Source text: as §2

[5] = system: CYP2D6, CYP2C9, CYP3A4, CYP2C19, CYP1A (printed 1a); experiment: inhibition of CYP450 enzymes; type: in vitro ADME; conditions: 5 isoforms; read-out: CYP inhibition IC50 (microM) 5 isoforms (2D6, 2C9, 3A4, 2C19, 1a)
Source text: as §2

mice [6] = experiment: Mouse Tail Suspension Test; type: in vivo; conditions: PO
Method: The method, which detects antidepressant activity, follows that described by Stéru et al (Psychopharmacology, 85: 367-370 (1985)). Rodents, suspended by the tail, rapidly become immobile. Antidepressants decrease the duration of immobility.
The behavior of the animal was recorded automatically for 5 minutes using a computerized device (Med-Associates Inc.) similar to that developed by Stéru et al (Prog. Neuropsychopharmacol. Exp. Psychiatry 11: 659-671 (1987)). Ten to twelve mice were tested in each group. Compounds were typically evaluated at 3 doses (1-30 mg/kg), administered orally one time: 30-60 minutes before the test, and compared with a vehicle control group. Desipramine (100 mg/kg), administered under the same experimental conditions, was used as the positive reference substance.
(§3) Data were analyzed by one way analysis of variance (ANOVA) followed by post-hoc comparisons where appropriate. An effect was considered significant if p<0.05. Data are represented as the mean and standard error to the mean (s.e.m).

mice [7] = experiment: Mouse Locomotor Activity; type: in vivo; conditions: PO
Method: In order to ensure effects of the compounds on immobility time were not related to a general stimulant effect on baseline motor activity, locomotor activity was assessed using photocell monitored cages (Med-Associates Inc.). Each test chamber was equipped with infrared photocell beams to measure movement of the animals. Horizontal and vertical activity were measured.
Rats or mice were pretreated with vehicle or test compounds and placed back in home cage, following which they were individually placed in locomotor cages and activity was monitored in 1-5 minute intervals for intervals up to 60 min.
as §3

[8] = molecular target: T4, Norepinephrine Transporter (NET) (Mus musculus, UniProt O55192); experiment: ex vivo [3H] nisoxetine binding to NET sites in mouse brain; conditions: mice, 60 minutes after treatment
T4 construct: Cortical membranes (400 μL; equivalent to 6.0 mg wet weight of tissue/tube); from tissue; host or cells: frontal cortex of C57BL/6 mice
T4 sequence (O55192 whole entry): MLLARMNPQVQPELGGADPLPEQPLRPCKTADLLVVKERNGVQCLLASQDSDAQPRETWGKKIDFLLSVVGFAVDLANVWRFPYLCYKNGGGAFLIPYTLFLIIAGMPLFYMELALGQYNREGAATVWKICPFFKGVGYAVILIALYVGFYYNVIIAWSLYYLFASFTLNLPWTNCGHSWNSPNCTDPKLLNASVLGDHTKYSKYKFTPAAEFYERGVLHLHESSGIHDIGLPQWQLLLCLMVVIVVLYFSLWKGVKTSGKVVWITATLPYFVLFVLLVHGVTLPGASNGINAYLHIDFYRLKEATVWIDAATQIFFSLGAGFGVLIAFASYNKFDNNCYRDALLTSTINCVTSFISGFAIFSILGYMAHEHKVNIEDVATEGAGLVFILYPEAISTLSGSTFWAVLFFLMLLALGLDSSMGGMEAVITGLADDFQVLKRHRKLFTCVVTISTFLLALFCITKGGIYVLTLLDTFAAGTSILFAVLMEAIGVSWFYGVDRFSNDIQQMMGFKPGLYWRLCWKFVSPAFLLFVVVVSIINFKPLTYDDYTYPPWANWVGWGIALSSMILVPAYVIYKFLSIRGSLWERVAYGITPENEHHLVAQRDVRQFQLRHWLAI
Method: (§4) Receptor occupancy of central noradrenaline (NA), 5-HT and dopamine (DA) transporter sites following peripheral administration of compounds was determined using [^3H] nisoxetine, [^3H] citalopram and [^3H] WIN 35428 binding, respectively. Liquid scintillation counting was used to quantify the radioactivity.
(§5) C57BL/6 mice (25-30 g) were dosed orally with either vehicle or compound at 4 dose levels. Mice were sacrificed 60 minutes after treatment. Whole brains were removed and cortex and striata dissected out before being frozen on dry ice. The brain tissue was stored at −20° C. until the day of the assay. The cortex from each hemisphere was frozen separately. One was used to determine occupancy of NA transporter sites and the other occupancy of 5-HT transporter sites. Striatum was used to determine occupancy of DA transporter sites.
(§6) Frontal cortex from each hemisphere or striata was homogenized individually in ice-cold assay buffer using a tight fitting glass/Teflon homogenizer and used immediately in the binding assay.
Cortical membranes (400 μL; equivalent to 6.0 mg wet weight of tissue/tube) were incubated with 50 μL of [^3H] nisoxetine at a single concentration of 0.6 nM and either 50 μL of buffer (total binding) or 50 μL of mazindol (1 μM; non-specific binding) for 4 h at 4° C. For each animal, three tubes were used for the determination of total binding and three tubes were used for the determination of non-specific binding.
(§7) Membrane bound radioactivity was recovered by filtration under vacuum through Skatron 11731 filters, presoaked in 0.5% PEI, using a Skatron cell harvester. Filters were rapidly washed with ice-cold phosphate buffer and radioactivity (dpm) was determined by liquid scintillation counting (1 mL Packard MV Gold scintillator).
(§8) A value for specific binding (dpm) was generated by the subtraction of mean non-specific binding (dpm) from mean total binding (dpm) for each animal. Data are presented as mean specific binding (dpm) and as a percentage of the vehicle-treated control taken as 100%.

5-HT Transporter (SERT) = molecular target: T5, 5-HT Transporter (SERT) (Mus musculus, UniProt Q60857); experiment: ex vivo [3H] citalopram binding to SERT sites in mouse brain; conditions: mice, 60 minutes after treatment
T5 construct: Cortical membranes (400 μL; equivalent to 1.25 mg wet weight of tissue/tube); from tissue; host or cells: frontal cortex of C57BL/6 mice
T5 sequence (Q60857 whole entry): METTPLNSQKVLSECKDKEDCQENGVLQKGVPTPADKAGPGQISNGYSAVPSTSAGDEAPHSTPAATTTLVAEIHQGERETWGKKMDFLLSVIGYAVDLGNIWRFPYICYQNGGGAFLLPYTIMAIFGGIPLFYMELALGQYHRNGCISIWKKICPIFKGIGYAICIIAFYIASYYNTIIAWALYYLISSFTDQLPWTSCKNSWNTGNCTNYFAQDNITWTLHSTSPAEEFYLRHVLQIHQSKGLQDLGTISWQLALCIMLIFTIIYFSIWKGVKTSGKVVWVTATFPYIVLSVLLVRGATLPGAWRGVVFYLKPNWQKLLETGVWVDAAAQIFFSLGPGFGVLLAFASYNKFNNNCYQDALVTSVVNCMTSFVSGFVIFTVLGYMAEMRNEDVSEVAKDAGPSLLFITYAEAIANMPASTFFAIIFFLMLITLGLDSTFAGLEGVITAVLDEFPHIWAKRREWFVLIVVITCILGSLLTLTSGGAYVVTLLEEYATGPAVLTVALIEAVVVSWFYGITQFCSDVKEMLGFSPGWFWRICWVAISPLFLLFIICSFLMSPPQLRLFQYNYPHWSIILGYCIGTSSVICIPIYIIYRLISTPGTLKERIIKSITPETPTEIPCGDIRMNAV
Method: as §4, §5, §6
Cortical membranes (400 μL; equivalent to 1.25 mg wet weight of tissue/tube) were incubated with 50 μl of [^3H] citalopram at a single concentration of 1.3 nM and either 50 μl of buffer (total binding) or 50 μl of paroxetine (0.5 μM; non-specific binding) for 1 h at 27° C. For each animal, three tubes were used for the determination of total binding and three tubes were used for the determination of non-specific binding.
as §7, §8

[9] = Example 6 summary of selected in vitro data, read-out: 5-HT IC50

Row | Compound | IC50 [1, 9] [nM] | IC50 [2] [nM] | IC50 [3] [nM] | half-life [4] [min] | IC50 [5] [µM] | Mouse Tail Suspension Mean Immobility Time ± S.E.M. (mice [6]; 1 mg/kg) | Mouse Tail Suspension Mean Immobility Time ± S.E.M. (mice [6]; 10 mg/kg) | Mouse Tail Suspension Mean Immobility Time ± S.E.M. (mice [6]; 30 mg/kg) | Mouse Locomotor Activity Total Distance Traveled ± S.E.M. (mice [7]; 1 mg/kg) | Mouse Locomotor Activity Total Distance Traveled ± S.E.M. (mice [7]; 10 mg/kg) | Mouse Locomotor Activity Total Distance Traveled ± S.E.M. (mice [7]; 30 mg/kg) | other results
1 | CNC[C@@H]1CCCC[C@@]1(O)c1ccc(Cl)c(Cl)c1 [Compound 4] | > 10000 | 10 to 200 | 10 to 200 | 176 to 325 | > 10 | ++++ (>191 (++++)) | +++ (171-190 (+++)) | + (100-160 (+)) | ** (501-700 (**)) | *** (701-900 (***)) | * (100-500 (*)) | IC50 ([1]; Example 4a, human reuptake transporter, read-out: 5-HT IC50): > 10000 nM; IC50 ([2]; read-out: NE IC50 nM, Example 6 summary of selected in vitro data): 10 to 200 nM; IC50 ([3]; read-out: DA IC50 nM, Example 6 summary of selected in vitro data): 10 to 200 nM; IC50 (HERG current): 1 to 15 µM; Mouse Tail Suspension Mean Immobility Time ± S.E.M. (mice [6]; 3 mg/kg): ++++ (>191 (++++)); Mouse Locomotor Activity Total Distance Traveled ± S.E.M. (mice [7]; 3 mg/kg): ** (501-700 (**))
2 | CN(C)C[C@@H]1CCCC[C@@]1(O)c1ccc(Cl)c(Cl)c1 (single isomer, unassigned) [Compound 2, cis-1-(3,4-dichlorophenyl)-2-((dimethylamino)methyl)cyclohexanol] | 1 to 2000 | 10 to 200 | 10 to 200 | 25 to 175 | > 20 | +++ (171-190 (+++)) | + (100-160 (+)) | + (100-160 (+)) | ** (501-700 (**)) | **** (>901 (****)) | * (100-500 (*)) | IC50 ([1]; 5-HT IC50 (nM), Example 4a, human reuptake transporter): 7000 to 10000 nM; IC50 ([2]; Example 6 summary of selected in vitro data, read-out: NE IC50): 10 to 200 nM; IC50 ([3]; Example 6 summary of selected in vitro data, read-out: DA IC50): 10 to 200 nM; IC50 (HERG current; read-out: HERG IC50): 16 to 30 µM; Mouse Tail Suspension Mean Immobility Time ± S.E.M. (mice [6]; 0.3 mg/kg): +++ (171-190 (+++)); Mouse Locomotor Activity Total Distance Traveled ± S.E.M. (mice [7]; 0.3 mg/kg): ** (501-700 (**)); % Transporter Occupancy, NET ([8]; 1 mg/kg PO): 19%; % Transporter Occupancy, NET ([8]; 3 mg/kg PO): 44%; % Transporter Occupancy, NET ([8]; 10 mg/kg PO): 74%; % Transporter Occupancy, NET ([8]; 30 mg/kg PO): 89%; % Transporter Occupancy, SERT (5-HT Transporter (SERT); 1 mg/kg PO): 11%; % Transporter Occupancy, SERT (5-HT Transporter (SERT); 3 mg/kg PO): −1%; % Transporter Occupancy, SERT (5-HT Transporter (SERT); 10 mg/kg PO): 6%; % Transporter Occupancy, SERT (5-HT Transporter (SERT); 30 mg/kg PO): 5%
